For one substance, plasma sodium results are on record in publication PMC7545998, “A snake toxin as a theranostic agent for the type 2 vasopressin receptor” (Theranostics, 2020).

The assay has as its system rat model of hyponatremia. The assay is described as follows: Rat model of dDAVP-induced hyponatremia. In kind it is in vivo. Here is the method:
Hyponatremia was induced in rats by continuous infusion of 10 ng/h of dDAVP and water gavage (Figure 2A). At day 0 (D0), the basal plasma sodium concentration was 145 ± 6 mM. […] In controls, plasma sodium decreased to 134 ± 1 mM and 125 ± 3 mM at D3 and D4, respectively. […] The concentration of 10 µg/kg increased plasma sodium by 12 mmol/l/24 h. This is considered as the highest acceptable correction rate in humans in order to avoid risk of osmotic demyelination. Rat weights were monitored during the experiment, each rat being its own reference.
Specific pathogen-free adult male Sprague-Dawley rats (body weight between 445 and 525 grams) were from Janvier laboratories (Le Genest St. Isle, 53941, Saint Berthevin Cedex, France) and acclimatized to the animal house conditions for 1 week. […] A stock […] solution of desmopressin (dDAVP) was prepared by dissolving 5 mg of drug in physiological saline. dDAVP was administered using subcutaneous ALZET osmotic mini-pumps (model 2002, DURECT Corporation, Cupertino, CA95014, USA) previously filled with a solution of dDAVP (pumping rate of 0.47±0.02 µL/h and mean fill volume of 233.6±4.7 µL). The dose of dDAVP (10 ng/h) was determined in preliminary experiments. Buprenorphine (Centravet, 03120 Lapalisse, France) was administered once a day at a dose of 0.02 mg/kg, s.c. from day 0 to day 3 in order to suppress post-operative pain. Water gavage (30 mL/kg) was performed 2 times per day (at 9 am and 4 pm) in the first 3 days following ALZET pump implantation, and at 9 am at day 4. Body weight was recorded every day in order to adjust for the volume of water to be administered. Rats had free access to standard rat chow, as well as water in their cages. […] On days 0, 2, 3 and 4, at 9 am, 400 µL of blood was collected from isoflurane- anesthetized rats from the tail vein with lithium heparinate (Sanofi-Aventis, Gentilly, France). Samples were centrifuged (4 °C, 2000 g, 5 min). Sodium was quantified by the Central Laboratory of the ENVT, Toulouse, France, on a VITROS 250/350/950/ 5, 1 FS, 4600 and integrated system VITROS 5600 (Ortho-Clinical Diagnostics, Buckinghamshire, United Kingdom). Multiple factor ANOVA followed by Tukey's test were used to test for significance. A P value < 0.05 was considered significant.

Take mambaquaretin [MQ1]: the plasma sodium (10 µg/kg ([…]) s.c. on days 2-4, D3) worked out at 145 ± 3 mM; the plasma sodium (10 µg/kg ([…]) s.c. on days 2-4, D4) is recorded as 148 ± 2 mM; the plasma sodium (100 µg/kg (16 nmol/kg) s.c. on days 2-4, D3) came out at 146 ± 2 mM; the plasma sodium (100 µg/kg (16 nmol/kg) s.c. on days 2-4, D4) is recorded as 154 ± 2 mM.
